Assay results taken from ChEMBL document CHEMBL1201862, “PubChem BioAssay data set” (2004).
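Protocol summary: plate cells (96-well), add compound at 5 concentrations, incubate 48 h, interpolate endpoints linearly. Abbreviation: GI50, concentration required for 50% inhibition of growth.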 Calls of active or inactive are those of the source. No stated cut-off is given here; in the data, active = GI50 up to about 1.1 µM and inactive = higher.

Experiments:
Assay in all cases: NCI tumour cell line growth inhibition, 48 h
RXF 631 = test system: RXF 631
HOP-18 = test system: HOP-18
SNB-78 = test system: SNB-78
M19-MEL = test system: M19-MEL
KM-20L2 = test system: KM-20L2
DMS-273 = test system: DMS-273
DLD-1 = test system: DLD-1
DMS-114 = test system: DMS-114
LXFL 529 = test system: LXFL 529

Measured: GI50

CCOC1c2nc3ccccc3nc2-c2ccccc2N1C(C)=O (stereo not drawn)
inactive: RXF 631 74.5 µM | HOP-18 51.6 µM | SNB-78 > 100 µM | M19-MEL > 100 µM | KM-20L2 > 100 µM | DMS-273 93.3 µM | DLD-1 > 100 µM | DMS-114 > 100 µM | LXFL 529 70.6 µM

CC1(C)c2ccccc2N2O[C@@H]3C(=O)N(c4ccccc4)C(=O)[C@@H]3C21c1ccccc1 (stereo partly drawn)
inactive: SNB-78 > 100 µM | M19-MEL > 100 µM | DMS-273 > 100 µM | DLD-1 > 100 µM | DMS-114 > 100 µM | LXFL 529 > 100 µM

CN/N=C(\C)C(CN1CCCCC1)C(C1=C(O)c2ccccc2OC1)c1ccccc1 (stereo not drawn)
inactive: RXF 631 > 100 µM | SNB-78 > 100 µM | M19-MEL > 100 µM | KM-20L2 > 100 µM | DMS-273 > 100 µM | DMS-114 79.3 µM | LXFL 529 > 100 µM

CNC(=O)CN(CC(=O)NC)C(=O)NC
inactive: SNB-78 > 100 µM | M19-MEL > 100 µM | KM-20L2 > 100 µM | DMS-273 > 100 µM | DLD-1 > 100 µM | LXFL 529 > 100 µM

COC(=O)C1=C(C(=O)OC)SC(=CC#CC=C2SC(C(=O)OC)=C(C(=O)OC)S2)S1
inactive: HOP-18 8.87 µM | SNB-78 12.2 µM | M19-MEL 40.5 µM | KM-20L2 11.9 µM | DMS-273 10.5 µM | DLD-1 14.1 µM | DMS-114 35.2 µM | LXFL 529 14.3 µM

CN1C(=O)n2c(nc3ccccc32)C(N=[N+]=[N-])(N=[N+]=[N-])C1=O (stereo not drawn)
inactive: RXF 631 > 100 µM | HOP-18 > 100 µM | SNB-78 > 100 µM | M19-MEL > 100 µM | KM-20L2 > 100 µM | DMS-273 > 100 µM | DLD-1 > 100 µM | DMS-114 > 100 µM | LXFL 529 > 100 µM

N/N=C1\C(=O)N(CCc2ccccc2)C(=O)C1C(=O)NCCc1ccccc1 (stereo not drawn)
inactive: RXF 631 > 100 µM | SNB-78 > 100 µM | M19-MEL > 100 µM | KM-20L2 > 100 µM | DMS-273 > 100 µM | DLD-1 > 100 µM | LXFL 529 > 100 µM

CCC(=O)C1=C(OC(C)=O)C2Cc3c(n(C)c4ccccc34)C(C1)N2C (stereo not drawn)
inactive: RXF 631 22.9 µM | HOP-18 25.4 µM | SNB-78 22.3 µM | M19-MEL 41.4 µM | KM-20L2 35.9 µM | DMS-273 20 µM | DLD-1 23.8 µM | DMS-114 26.7 µM | LXFL 529 29 µM

COc1cc2c(cc1OC)-c1cc3cc(OC)c(OC)cc3n1CC2
inactive: SNB-78 36.8 µM | M19-MEL > 100 µM | KM-20L2 21.6 µM | DLD-1 58.2 µM | DMS-114 72.3 µM | LXFL 529 54.8 µM

CC1CCP(=O)(c2ccccc2)c2ccccc21 (stereo not drawn)
inactive: HOP-18 > 100 µM | SNB-78 > 100 µM | M19-MEL 24.4 µM | KM-20L2 > 100 µM | DMS-273 28.2 µM | DLD-1 46.8 µM | DMS-114 38.4 µM | LXFL 529 43.6 µM

COc1cc2c(cc1OC)C(Cl)C(c1ccc(Br)cc1)=C2Cl (stereo not drawn)
inactive: HOP-18 20.9 µM | SNB-78 13.5 µM | M19-MEL 16.4 µM | KM-20L2 18.5 µM | DMS-273 14.3 µM | DLD-1 12.7 µM | DMS-114 9.06 µM

N#Cc1c(-c2ccco2)cc(-c2ccccc2)nc1O
inactive: RXF 631 > 100 µM | SNB-78 > 100 µM | M19-MEL > 100 µM | KM-20L2 > 100 µM | DMS-273 > 100 µM | DLD-1 > 100 µM | LXFL 529 > 100 µM

CC(C)C(=O)NS(=O)(=O)c1ccccc1
inactive: RXF 631 > 100 µM | HOP-18 > 100 µM | SNB-78 > 100 µM | M19-MEL > 100 µM | KM-20L2 > 100 µM | DLD-1 > 100 µM | DMS-114 > 100 µM | LXFL 529 > 100 µM

CCC12C=CCN3CC[C@]4(C(=C(C(=O)OC)[C@@H]1Nc1ccn(C5OC(COC(C)=O)C(OC(C)=O)C5OC(C)=O)c(=O)n1)Nc1ccccc14)C32 (stereo partly drawn)
inactive: HOP-18 6.92 µM | SNB-78 5.42 µM | M19-MEL 3.98 µM | KM-20L2 4.66 µM | DMS-273 4.28 µM | DLD-1 4.53 µM | LXFL 529 4.42 µM

COC(=O)c1cc(O)ccc1NC(=O)c1ccc(O)cc1
inactive: RXF 631 > 100 µM | HOP-18 > 100 µM | SNB-78 > 100 µM | M19-MEL > 100 µM | KM-20L2 > 100 µM | DLD-1 > 100 µM | DMS-114 > 100 µM | LXFL 529 > 100 µM

N#C/N=C(/NCCc1c[nH]c2ccccc12)Oc1ccccc1
inactive: SNB-78 98.9 µM | M19-MEL 94.8 µM | KM-20L2 22.5 µM | DMS-273 > 100 µM | DLD-1 > 100 µM | DMS-114 40.9 µM | LXFL 529 72.8 µM

Nc1n[n+]([O-])c2ccccc2[n+]1[O-] [TIRAPAZAMINE]
inactive: RXF 631 > 100 µM | SNB-78 > 100 µM | M19-MEL 95.9 µM | DMS-273 52.2 µM | DMS-114 44.4 µM | LXFL 529 > 100 µM

CC(C)OP(=O)(NC(=S)c1ccccc1)OC(C)C
inactive: SNB-78 > 100 µM | M19-MEL > 100 µM | KM-20L2 > 100 µM | DMS-273 > 100 µM | DLD-1 > 100 µM | DMS-114 70.8 µM | LXFL 529 57.7 µM

Cc1cc2c(cc1Br)C1(C)CCC(C)C1(C)O2 (stereo not drawn)
inactive: HOP-18 30.1 µM | SNB-78 24 µM | M19-MEL 25.3 µM | KM-20L2 32.3 µM | DMS-273 19.6 µM | DLD-1 48.8 µM | DMS-114 22 µM | LXFL 529 57.7 µM

N#CC1(C#N)C2(c3ccccc3)OC(c3ccccc3)(c3cc4ccccc4cc32)C1(C#N)C#N
inactive: HOP-18 3.47 µM | KM-20L2 13.3 µM | DMS-273 16.3 µM | DLD-1 8.73 µM | DMS-114 7.89 µM | LXFL 529 1.62 µM

COc1cc(Cn2c(=S)ss/c2=N\C(=S)N(C)C)cc(OC)c1OC
inactive: RXF 631 4.25 µM | HOP-18 > 92 µM | SNB-78 > 100 µM | M19-MEL 4.11 µM | KM-20L2 4.68 µM | DMS-273 4.41 µM | DLD-1 6.31 µM | DMS-114 2.93 µM | LXFL 529 6.37 µM

COc1c2nc(CCl)[nH]c(=O)c2c(OC)c2nc(CCl)[nH]c(=O)c12
inactive: HOP-18 > 100 µM | SNB-78 > 100 µM | M19-MEL > 100 µM | KM-20L2 > 100 µM | DMS-273 > 100 µM | DLD-1 > 100 µM | DMS-114 > 100 µM | LXFL 529 > 100 µM
